# Data published in US12329883B2, “Soft tissue repair implants comprising hydroxybutyrate” (Davol Inc., priority 2017, dated 2025).
# Tested on: cathelicidin LL-37 expression
# Test: cathelicidin LL-37 immunolabeling of primary macrophages exposed for 18 hours to samples
# Type: cell-based, C57bl/6 mice
# Details: primary bone marrow-derived macrophages, 18 hours exposure
# Protocol: Primary macrophages were differentiated from mononuclear cells harvested from the bone marrow of C57bl/6 mice. A solution of these primary macrophages was divided into 18 wells, each of which was exposed for 18 hours to one of samples nos. 1-18; i.e., a composition comprising either a species of interest dissolved in cell growth media or a solubilized biological scaffold dissolved in cell growth media. […]
# After immunolabeling preparation, images were taken of the counterstained macrophages for three 20× fields for each well using a Zeus live-cell microscope. […] The light exposure time that produced the best images was determined, and the remaining samples were imaged at this light exposure time.
# After immunolabeling, each macrophage nucleus appeared blue in the immunolabeling images and cathelicidin LL-37 appeared green. The percentages of macrophages expressing cathelicidin LL-37 shown in FIG. 7 were calculated by dividing the number of cathelicidin LL-37-expressing cells in each image (determined by the number of blue nuclei located in close proximity to green cathelicidin LL-37) by the number of cells in each image (determined by the number of blue nuclei in each image). The identification of cathelicidin LL-37 and cell nuclei in the images was determined with the aid of CellProfiler, a […] software analyzer (available at http://www.cellprofiler.org). […]
smiles,measurement,setting,value
O=C(O)CCCO [4-hydroxybutyrate],"cathelicidin LL-37 expression (percent of cathelicidin LL-37 expressing cells, FIG. 6 and FIG. 7)","Example 1, 4HB 12 mM",strongly promoted
same,"cathelicidin LL-37 expression (percent of cathelicidin LL-37 expressing cells, FIG. 8 and FIGS. 9-16)","Example 2, concentration series of Table 2",effectively induce
